Each molecule was assayed against T1, human M1 receptor (hCHRM1) (Homo sapiens, UniProt P11229) (assay: Measurement of M1 receptor positive allosteric modulator (M1PAM) activity, calcium fluorescence (FLIPRtetra)). Conditions: 10 μM test compound with acetylcholine at EC20 (final 0.6-0.8 nM); 100% = acetylcholine 1 μM, 0% = DMSO; CHO-K1 cells expressing hCHRM1.
T1 construct: expressed in transfected cells
T1 sequence (P11229 1-460): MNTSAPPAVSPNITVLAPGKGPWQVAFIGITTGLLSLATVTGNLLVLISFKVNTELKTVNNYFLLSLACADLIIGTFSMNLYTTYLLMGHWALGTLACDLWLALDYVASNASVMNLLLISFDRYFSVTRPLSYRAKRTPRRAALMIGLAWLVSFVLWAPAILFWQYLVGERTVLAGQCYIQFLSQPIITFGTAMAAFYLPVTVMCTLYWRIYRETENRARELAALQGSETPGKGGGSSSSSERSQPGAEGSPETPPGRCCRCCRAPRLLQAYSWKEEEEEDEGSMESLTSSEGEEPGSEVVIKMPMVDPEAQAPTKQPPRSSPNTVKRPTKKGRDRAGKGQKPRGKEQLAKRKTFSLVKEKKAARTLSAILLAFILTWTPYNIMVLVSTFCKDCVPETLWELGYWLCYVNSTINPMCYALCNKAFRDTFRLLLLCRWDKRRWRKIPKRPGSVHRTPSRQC
Format: cell-based
Procedure: Measurement of M1 Receptor Positive Allosteric Modulator (M1PAM) Activity
The activity of a test compound in the presence of acetylcholine at EC20 concentration (final concentration 0.6-0.8 nM), which affords an action corresponding to about 20% of the maximum activity, was measured as PAM activity. The method is as follows. CHO-K1 cells stably expressing a human M1 receptor (hCHRM1) were plated on a 384-well black clear bottom plate (BD Falcon) at 5,000 cells/well, and cultured in an incubator at 37° C., 5% CO2 for 1 day. The medium in the cell plate was removed, and assay buffer A containing calcium indicator (Recording medium (DOJINDO LABORATORIES), 0.1% BSA (Wako Pure Chemical Industries, Ltd.), 2.5 μg/mL Fluo-4 AM (DOJINDO LABORATORIES), 0.08% Pluronic F127 (DOJINDO LABORATORIES), 1.25 mM probenecid (DOJINDO LABORATORIES)) was added at 30 μL/well. The cells were left standing in the incubator at 37° C., 5% CO2 for 30 min, and further left standing at room temperature for 30 min. A test compound prepared by diluting with assay buffer B (HBSS (Invitrogen), 20 mM HEPES (Invitrogen), 0.1% BSA) containing 2.4-3.2 nM acetylcholine was added at 10 μL/well, and the fluorescence was measured by FLIPRtetra (Molecular Devices) for 1 min every for 1 second. With the definition that the amount of change in the fluorescence on addition of acetylcholine (final concentration 1 μM) is 100% and that on addition of DMSO instead of a test compound is 0%, the activity (%) of the test compound was calculated, and the inflection point in the concentration-dependent curve of the test compound was calculated as IP values.

Row | SMILES | activity (%) at 10 μM [%]
1 | Cc1cnc(C(=O)N[C@H]2COCC[C@@H]2O)cc1Cc1ccc(-c2ccn(C)n2)cc1F [Example 16, 1,5-anhydro-2,4-dideoxy-2-(((4-(2-fluoro-4-(1-methyl-1H-pyrazol-3-yl)benzyl)-5-methylpyridin-2-yl)carbonyl)amino)-L-threo-pentitol] | 91
2 | Cc1cnc(C(=O)N[C@H]2CCCC[C@@H]2O)cc1Cc1ccc(-c2cn(C)nc2C)cc1 [Example 15, 4-(4-(1,3-dimethyl-1H-pyrazol-4-yl)benzyl)-N-((1S,2S)-2-hydroxycyclohexyl)-5-methylpyridine-2-carboxamide] | 107
3 | COc1cnc(C(=O)N[C@H]2CCCC[C@@H]2O)cc1Cc1ccc(Br)cc1 [Example 62, 4-(4-bromobenzyl)-N-((1S,2S)-2-hydroxycyclohexyl)-5-methoxypyridine-2-carboxamide] | 96
4 | COc1nc(C(=O)N[C@H]2COCC[C@@H]2O)cc(Cc2ccc(-c3ccn(C)n3)cc2)c1C [Example 87, 1,5-anhydro-2,4-dideoxy-2-(((6-methoxy-5-methyl-4-(4-(1-methyl-1H-pyrazol-3-yl)benzyl)pyridin-2-yl)carbonyl)amino)-L-threo-pentitol] | 92
5 | Cc1cnc(C(=O)N[C@H]2CCC[C@@H]2O)cc1Cc1ccc(-n2cccn2)cc1 [Example 5, N-((1S,2S)-2-hydroxycyclopentyl)-5-methyl-4-(4-(1H-pyrazol-1-yl)benzyl)pyridine-2-carboxamide] | 91
6 | O=C(N[C@H]1CCCC[C@@H]1O)c1cc(Cc2ccc(-n3cccn3)cc2)c(F)cn1 [Example 55, 5-fluoro-N-((1S,2S)-2-hydroxycyclohexyl)-4-(4-(1H-pyrazol-1-yl)benzyl)pyridine-2-carboxamide] | 97
7 | Cc1nc(C(=O)N[C@H]2COCC[C@@H]2O)cc(Cc2ccc(-c3ccn(C)n3)nc2)c1C [Example 86, 1,5-anhydro-2,4-dideoxy-2-(((5,6-dimethyl-4-((6-(1-methyl-1H-pyrazol-3-yl)pyridin-3-yl)methyl)pyridin-2-yl)carbonyl)amino)-L-threo-pentitol] | 95
8 | COc1ccc(Cc2cc(C(=O)N[C@H]3COCC[C@@H]3O)nc(C)c2Cl)cc1 [Example 102, 1,5-anhydro-2-(((5-chloro-4-(4-methoxybenzyl)-6-methylpyridin-2-yl)carbonyl)amino)-2,4-dideoxy-L-threo-pentitol] | 104
9 | Cc1nc(C(=O)N[C@H]2COCC[C@@H]2O)cc(Cc2ccc(-n3cccn3)cc2)c1C [Example 78, 1,5-anhydro-2,4-dideoxy-2-(((5,6-dimethyl-4-(4-(1H-pyrazol-1-yl)benzyl)pyridin-2-yl)carbonyl)amino)-L-threo-pentitol] | 104
10 | Cc1nc(C(=O)N[C@H]2CCC[C@@H]2O)cc(Cc2ccc(-c3ccn(C)n3)nc2)c1C [Example 117, N-((1S,2S)-2-hydroxycyclopentyl)-5,6-dimethyl-4-((6-(1-methyl-1H-pyrazol-3-yl)pyridin-3-yl)methyl)pyridine-2-carboxamide] | 106
11 | Cc1nc(C(=O)N[C@H]2CCC[C@@H]2O)cc(Cc2ccc(Cl)nc2)c1C [Example 116, 4-((6-chloropyridin-3-yl)methyl)-N-((1S,2S)-2-hydroxycyclopentyl)-5,6-dimethylpyridine-2-carboxamide] | 104
12 | Cc1cnc(C(=O)N[C@H]2COCC[C@@H]2O)cc1Cc1ccc(-n2cccn2)cc1 [Example 49, 1,5-anhydro-2,4-dideoxy-2-(((5-methyl-4-(4-(1H-pyrazol-1-yl)benzyl)pyridin-2-yl)carbonyl)amino)-L-threo-pentitol] | 99
13 | Cc1cnc(C(=O)N[C@H]2CCCC[C@@H]2O)cc1Cc1ccc(-n2cccn2)cc1 (relative stereo) [Example 4, N-(trans-2-hydroxycyclohexyl)-5-methyl-4-(4-(1H-pyrazol-1-yl)benzyl)pyridine-2-carboxamide] | 98
14 | Cc1cnc(C(=O)NC2CCC(F)(F)CC2)cc1Cc1ccc(-c2ccn(C)n2)cc1 [Example 33, N-(4,4-difluorocyclohexyl)-5-methyl-4-(4-(1-methyl-1H-pyrazol-3-yl)benzyl)pyridine-2-carboxamide] | 71
15 | Cc1cnc(C(=O)N[C@H]2CCCC[C@@H]2O)cc1Cc1ccc(-n2cccn2)cc1 [Example 48, N-((1S,2S)-2-hydroxycyclohexyl)-5-methyl-4-(4-(1H-pyrazol-1-yl)benzyl)pyridine-2-carboxamide] | 106
16 | Cc1cc(Cc2ccc(-n3cccn3)cc2)cc(C(=O)N[C@H]2CCCC[C@@H]2O)n1 [Example 70, N-((1S,2S)-2-hydroxycyclohexyl)-6-methyl-4-(4-(1H-pyrazol-1-yl)benzyl)pyridine-2-carboxamide] | 87
17 | COc1cc(Cc2ccc(-n3cccn3)cc2)cc(C(=O)N[C@H]2CCC[C@@H]2O)n1 [Example 68, N-((1S,2S)-2-hydroxycyclopentyl)-6-methoxy-4-(4-(1H-pyrazol-1-yl)benzyl)pyridine-2-carboxamide] | 96
18 | Cc1cnc(C(=O)N[C@H]2CCC[C@@H]2O)cc1Cc1ccc(-n2cccn2)nc1 [Example 34, N-((1S,2S)-2-hydroxycyclopentyl)-5-methyl-4-((6-(1H-pyrazol-1-yl)pyridin-3-yl)methyl)pyridine-2-carboxamide] | 96
19 | COc1nc(C(=O)N[C@H]2CCC[C@@H]2O)cc(Cc2ccc(-c3ccn(C)n3)cc2)c1C [Example 90, N-((1S,2S)-2-hydroxycyclopentyl)-6-methoxy-5-methyl-4-(4-(1-methyl-1H-pyrazol-3-yl)benzyl)pyridine-2-carboxamide] | 106
20 | Cc1ccc(Cc2cc(C(=O)N[C@H]3CCCC[C@@H]3O)nc(C)c2Cl)cn1 [Example 110, 5-chloro-N-((1S,2S)-2-hydroxycyclohexyl)-6-methyl-4-((6-methylpyridin-3-yl)methyl)pyridine-2-carboxamide] | 95
21 | Cc1nc(C(=O)N[C@H]2CCCC[C@@H]2O)cc(Cc2ccc(-c3cnn(C)c3)cc2)c1C [Example 79, N-((1S,2S)-2-hydroxycyclohexyl)-5,6-dimethyl-4-(4-(1-methyl-1H-pyrazol-4-yl)benzyl)pyridine-2-carboxamide] | 106
22 | Cc1nc(C(=O)N[C@H]2CCCC[C@@H]2O)cc(Cc2ccc(C#N)cc2)c1Cl [Example 66, 5-chloro-4-(4-cyanobenzyl)-N-((1S,2S)-2-hydroxycyclohexyl)-6-methylpyridine-2-carboxamide] | 105
23 | Cc1ccc(Cc2cc(C(=O)N[C@H]3CCCC[C@@H]3O)nc(C)c2C)cn1 [Example 84, N-((1S,2S)-2-hydroxycyclohexyl)-5,6-dimethyl-4-((6-methylpyridin-3-yl)methyl)pyridine-2-carboxamide] | 93
24 | O=C(N[C@H]1COCC[C@@H]1O)c1cc(Cc2ccc(-n3cccn3)cc2)c(C2CC2)cn1 [Example 47, 1,5-anhydro-2-(((5-cyclopropyl-4-(4-(1H-pyrazol-1-yl)benzyl)pyridin-2-yl)carbonyl)amino)-2,4-dideoxy-L-threo-pentitol] | 96
25 | COc1ccc(Cc2cc(C(=O)N[C@H]3CCCC[C@@H]3O)nc(C)c2Cl)cn1 [Example 105, 5-chloro-N-((1S,2S)-2-hydroxycyclohexyl)-4-((6-methoxypyridin-3-yl)methyl)-6-methylpyridine-2-carboxamide] | 100
26 | Cc1cnc(C(=O)N[C@H]2CCCC[C@@H]2O)cc1Cc1ccc(-n2cccn2)cc1F [Example 12, 4-(2-fluoro-4-(1H-pyrazol-1-yl)benzyl)-N-((1S,2S)-2-hydroxycyclohexyl)-5-methylpyridine-2-carboxamide] | 113
27 | Cc1cnc(C(=O)NC2CC2(F)F)cc1Cc1ccc(-c2ccn(C)n2)cc1 (stereo not drawn) [Example 22, N-(2,2-difluorocyclopropyl)-5-methyl-4-(4-(1-methyl-1H-pyrazol-3-yl)benzyl)pyridine-2-carboxamide] | 77

Source: patent US10214508B2, “Nitrogen-containing heterocyclic compound” (Takeda Pharmaceutical Company Limited, priority 2014, dated 2019)
